The values below come from US20060241183A1, “Compositions and methods of using D-DOPA to treat Parkinson's disease” (priority 2004, published 2006).

Data set [1] concerns urinary excretion of dopamine. The note with it: D- and L-DOPA 50 mg/kg; cited from earlier work.
Data set [2] has as its system striatal dopamine and its metabolites (DOPAC and HVA). The data set can be described thus: Striatal dopamine, DOPAC and HVA after intraventricular administration of L-DOPA, D-DOPA or DHPPA. The class given is in vivo, Sprague-Dawley rats. The note with it: for Striatal DOPAC / Striatal Dopamine / Striatal HVA: intraventricular, 10 μl, 2 h after treatment, mean ± S.E.M. As to the method:
The present example illustrates the possible involvement of DHPPA in the formation of dopamine from D-DOPA. […] In an attempt to examine an alternate pathway, four groups of Sprague-Dawley rats weighing 120-150 grams with cannulae permanently implanted into their lateral ventricles, according to the procedure described in Robinson et al., Physiol. Behav. 4, 123-124, (1969), were used. One group received 10 μl. of saline into the ventricles. The second, third and fourth groups received, intraventricularly, 200.μ.g of L-DOPA, D-DOPA and 3,4-dihydroxyphenylpyruvic acid (DHPPA) in 10 μl of saline, respectively. The rats were sacrificed two hours after treatment and their striata removed and analyzed. Striatal concentrations of dopamine, DOPAC and HVA were measured by massfragmentography according to the procedure set forth in Karoum, Neuromethods.

The subject of the next data set is circling. Conditions: rats with unilateral 6-hydroxydopamine lesion; cited from earlier work.
The subject of data set [3] is striatal concentration of dopamine, DOPAC and HVA. In words: Striatal dopamine, DOPAC and HVA after intragastric D- or L-DOPA plus carbidopa in rats with unilateral substantia nigra lesions. The format is in vivo, male Sprague-Dawley Rats. Conditions: for time for formation of dopamine in the striatum to reach its maximum concentration: after intragastric administration, inferred from DOPAC and HVA in lesion striata; for time to achieve maximum concentration of dopamine in the central nervous system: following intragastric administration; for increase of dopamine and its metabolites in the intact striata, D- versus L-DOPA / time at which dopamine content in the intact striata peaked / change of dopamine concentrations in the lesion striata: intragastric administration; for change of concentrations of DOPAC and HVA in the lesion striata: one hour after treatment. The source says: The present example illustrates the efficacy of the administration of D-DOPA of L-DOPA in vivo. In order to show the effectiveness of D-DOPA for increasing striatal dopamine content, male Sprague-Dawley Rats (Zivic-Miller, Allison Park, Pa.) weighing 300 to 400 grams were used. At least four weeks prior to the experiments, unilateral Substantia Nigra lesions were produced with intranigral administration of 6-hydroxydopamine according to the procedures set forth in Ungerstedt, Acta Physiol. Scand. (Suppl.) 367, 69 (1971).
The extent of unilateral Substantia Nigra lesions was tested by measuring apomorphine simulated rotation according to the procedures described in Understedt, supra, 1971; Freed et al. Ann. Neurol. 8, 510 (1980).
Either D- or L-DOPA was intragastrically administered to the rats in combination with carbidopa at doses of 50 mg/kg body weight of D-DOPA or L-DOPA and 5 mg/kg body weight of carbidopa, suspended in sterile water, to provide a pharmaceutically acceptable solution for administration. D- or L-DOPA was intragastrically administered to groups of five rats, which were sacrificed one or two hours after treatment. The left (intact) and right (lesioned) striata of these rats were excised and analyzed separately for the content of dopamine and its metabolites 3,4-dihydroxyphenylacetic acid (DOPAC) and homovanillic acid (HVA), according to the procedure as set forth in Karoum, Neuromethods, Vol. 2 (G. B. Baker, A. A. Boulton and J. M. Baker eds.), The Humana Press, Inc., New Jersey, page 305, 1985 (referred to hereafter as “Karoum, Neuromethods”).

The target in data set [4] is T1, L-amino acid decarboxylase (Homo sapiens, UniProt P20711).
T1 sequence (P20711 1-480): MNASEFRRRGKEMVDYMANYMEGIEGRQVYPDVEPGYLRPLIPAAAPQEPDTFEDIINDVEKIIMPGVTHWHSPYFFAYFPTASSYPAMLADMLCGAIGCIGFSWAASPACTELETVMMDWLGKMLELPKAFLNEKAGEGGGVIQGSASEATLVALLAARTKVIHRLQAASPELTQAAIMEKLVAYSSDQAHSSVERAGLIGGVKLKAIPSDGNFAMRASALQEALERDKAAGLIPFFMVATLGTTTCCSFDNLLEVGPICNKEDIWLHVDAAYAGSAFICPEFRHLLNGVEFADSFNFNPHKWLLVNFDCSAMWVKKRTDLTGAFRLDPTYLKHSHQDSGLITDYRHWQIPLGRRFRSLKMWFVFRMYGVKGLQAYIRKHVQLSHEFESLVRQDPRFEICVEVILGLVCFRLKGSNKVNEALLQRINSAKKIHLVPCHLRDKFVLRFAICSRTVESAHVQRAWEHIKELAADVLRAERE
The note with it: cited from earlier work.

For data set [5], the system named is striatal dopamine or its metabolites. The data set can be described thus: Repeated intragastric administration of DHPPA plus carbidopa, striatal dopamine and metabolites. The class given is in vivo. The note with it: concluded from repeated intragastric administration.
A further data set has as its system hypothalamic dopamine. In words: Hypothalamic dopamine and metabolites after intragastric D- and L-DOPA. The format is in vivo. The note with it: after intragastric administration. The text has this:
DHPPA can be formed from D-DOPA by either of two pathways, that is, direct transamination, or through deamination by D-amino acid oxidase, an enzyme widely distributed in the brain. The pattern of changes of striatal dopamine and its metabolites observed after intragastric administration of D- and L-DOPA are similar to those observed in the hypothalamus.

On to `C[C@@](Cc1ccc(O)c(O)c1)(NN)C(=O)O` [Carbidopa, carbidopa], for which the “reduction of urinary excretion of dopamine following D-DOPA compared with co-administration with L-DOPA” value in data set [1] is given as “to a far greater degree”.

Regarding `N[C@H](Cc1ccc(O)c(O)c1)C(=O)O` [D-DOPA], in data set [2], the “Striatal DOPAC” value is given as 19 ± 0.92 ng/mg protein, the “Striatal Dopamine” value is listed as 116 ± 5.1 ng/mg protein and the “Striatal HVA” value is on record as 4.8 ± 0.50 ng/mg protein. The induction of circling result in the data set on circling is given as “can induce circling”. In data set [3], the “time for formation of dopamine in the striatum to reach its maximum concentration” value was “within one hour”; the “time to achieve maximum concentration of dopamine in the central nervous system” value worked out at 2 h; the “increase of dopamine and its metabolites in the intact striata, D- versus L-DOPA” value is “to about the same extent”; the “time at which dopamine content in the intact striata peaked” value is “two hours”. Besides, in data set [3], the “change of dopamine concentrations in the lesion striata” value is “Neither D- nor L-DOPA increased dopamine concentrations”; the “change of concentrations of DOPAC and HVA in the lesion striata” value is “markedly increased”. In data set [4], the “substrate for L-amino acid decarboxylase” value was “not a substrate”.

Regarding `O=C(O)C(=O)Cc1ccc(O)c(O)c1` [DHPPA, 3,4-dihydroxyphenylpyruvic acid], the “crossing of the blood brain barrier” value in data set [5] is on record as “does not easily cross the blood brain barrier”. Further, in data set [2] (intraventricular administration), the “elevations of dopamine and DOPAC compared with D- or L-DOPA” value is “larger elevations”. Besides, in data set [2], the “Striatal DOPAC” value is 96 ± 16.6 ng/mg protein, the “Striatal Dopamine” value is recorded as 140 ± 11.0 ng/mg protein and the “Striatal HVA” value was determined as 23.3 ± 3.53 ng/mg protein.

As to `N[C@@H](Cc1ccc(O)c(O)c1)C(=O)O` [L-DOPA], in data set [2], the “Striatal DOPAC” value amounted to 59 ± 9.49 ng/mg protein, the “Striatal Dopamine” value turned out to be 120 ± 7.4 ng/mg protein and the “Striatal HVA” value was determined as 22.2 ± 1.60 ng/mg protein. Moreover, in data set [3], the “time for formation of dopamine in the striatum to reach its maximum concentration” value is “within one hour”; the “time to achieve maximum concentration of dopamine in the central nervous system” value is 1 h; the “increase of dopamine and its metabolites in the intact striata, D- versus L-DOPA” value is listed as “to about the same extent”; the “time at which dopamine content in the intact striata peaked” value is on record as “one hour”. Also, in data set [3], the “change of dopamine concentrations in the lesion striata” value is listed as “Neither D- nor L-DOPA increased dopamine concentrations”; the “change of concentrations of DOPAC and HVA in the lesion striata” value is reported as “markedly increased”. Besides, the “increases in hypothalamic DOPAC and HVA, L-DOPA versus D-DOPA” value with hypothalamic dopamine is given as “considerably higher”.
